Columns and labels:
Format in all cases: biochemical
PLAP = PLAP (Homo sapiens, UniProt P05187); experiment: PLAP luminescent assay; details: for IC50: PLAP potency (IC50), mean ± SD of three experiments, CDP-star 85 μM
TNAP = target: T1, TNAP (Homo sapiens, UniProt P05186); experiment: TNAP luminescent assay; details: ratio IC50 TNAP / IC50 PLAP
T1 sequence (P05186 18-502 limits assumed): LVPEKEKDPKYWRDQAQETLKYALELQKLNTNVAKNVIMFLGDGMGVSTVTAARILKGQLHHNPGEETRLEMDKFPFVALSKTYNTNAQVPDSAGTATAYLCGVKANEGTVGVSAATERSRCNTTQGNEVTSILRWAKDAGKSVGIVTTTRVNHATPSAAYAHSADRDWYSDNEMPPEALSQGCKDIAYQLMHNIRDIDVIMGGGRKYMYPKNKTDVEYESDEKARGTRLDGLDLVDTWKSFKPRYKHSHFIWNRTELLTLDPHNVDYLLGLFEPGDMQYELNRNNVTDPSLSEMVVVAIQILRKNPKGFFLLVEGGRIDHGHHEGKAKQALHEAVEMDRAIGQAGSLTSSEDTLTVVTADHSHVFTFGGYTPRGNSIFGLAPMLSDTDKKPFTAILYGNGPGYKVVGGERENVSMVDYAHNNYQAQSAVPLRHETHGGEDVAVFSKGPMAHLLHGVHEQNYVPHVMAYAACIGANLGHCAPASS

GCAP = GCAP (Homo sapiens, UniProt P10696); experiment: GCAP luminescent assay; details: ratio IC50 GCAP / IC50 PLAP; for 12, 13, 20 from the separate-occasion values
IAP = target: T2, IAP (Homo sapiens, UniProt P09923); experiment: IAP luminescent assay; details: ratio IC50 IAP / IC50 PLAP
T2 sequence (P09923 20-503 limits assumed): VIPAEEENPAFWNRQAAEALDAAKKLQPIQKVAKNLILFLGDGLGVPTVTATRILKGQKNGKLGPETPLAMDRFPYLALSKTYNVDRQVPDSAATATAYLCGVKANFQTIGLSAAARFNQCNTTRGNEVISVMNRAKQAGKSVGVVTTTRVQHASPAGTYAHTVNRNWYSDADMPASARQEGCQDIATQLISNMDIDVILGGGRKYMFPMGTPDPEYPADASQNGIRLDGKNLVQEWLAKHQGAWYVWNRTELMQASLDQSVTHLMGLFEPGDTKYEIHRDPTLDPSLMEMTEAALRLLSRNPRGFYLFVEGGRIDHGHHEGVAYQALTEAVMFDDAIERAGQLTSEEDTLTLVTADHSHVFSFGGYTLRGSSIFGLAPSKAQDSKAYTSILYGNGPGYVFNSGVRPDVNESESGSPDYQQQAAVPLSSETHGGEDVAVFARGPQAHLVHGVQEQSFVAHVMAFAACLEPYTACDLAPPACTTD

PLAP, sequence (P05187 23-506 limits assumed): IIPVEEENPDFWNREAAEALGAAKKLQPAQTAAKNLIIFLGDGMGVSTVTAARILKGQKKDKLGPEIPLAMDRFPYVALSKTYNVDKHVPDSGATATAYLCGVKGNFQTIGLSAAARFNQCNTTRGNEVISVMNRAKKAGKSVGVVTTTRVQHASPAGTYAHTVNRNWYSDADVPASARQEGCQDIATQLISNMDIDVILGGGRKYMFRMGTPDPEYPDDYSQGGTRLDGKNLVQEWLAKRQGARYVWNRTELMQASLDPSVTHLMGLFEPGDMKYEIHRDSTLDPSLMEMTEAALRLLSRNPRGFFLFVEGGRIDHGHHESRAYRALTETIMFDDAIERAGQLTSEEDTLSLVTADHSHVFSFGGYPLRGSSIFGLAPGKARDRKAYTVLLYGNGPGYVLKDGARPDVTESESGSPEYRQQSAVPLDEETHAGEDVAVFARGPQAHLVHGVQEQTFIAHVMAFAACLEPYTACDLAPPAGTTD
GCAP, sequence (P10696 20-503 limits assumed): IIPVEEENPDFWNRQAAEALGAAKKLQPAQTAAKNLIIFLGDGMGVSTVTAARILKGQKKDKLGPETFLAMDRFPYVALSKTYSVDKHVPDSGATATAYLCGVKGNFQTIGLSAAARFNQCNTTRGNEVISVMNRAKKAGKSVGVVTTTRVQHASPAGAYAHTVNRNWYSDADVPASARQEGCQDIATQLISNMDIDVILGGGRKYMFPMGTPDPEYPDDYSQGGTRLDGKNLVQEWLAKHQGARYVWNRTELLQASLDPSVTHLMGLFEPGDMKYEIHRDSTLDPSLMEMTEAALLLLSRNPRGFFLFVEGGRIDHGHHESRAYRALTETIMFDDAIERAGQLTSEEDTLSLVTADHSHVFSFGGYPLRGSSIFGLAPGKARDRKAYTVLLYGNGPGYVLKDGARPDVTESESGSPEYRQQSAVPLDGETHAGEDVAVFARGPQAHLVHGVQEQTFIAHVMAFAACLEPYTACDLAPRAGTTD

| IC50 (PLAP) | PLAP inhibitory potency at 100 μM (PLAP) | also measured | SMILES |
| --- | --- | --- | --- |
| > 100 µM | no PLAP inhibitory potency | – | COc1cc(C(=O)CSc2nc(C)cc(C)n2)ccc1O [Compound 5] |
| – | – | Selectivity (TNAP/PLAP) (TNAP): > 17 fold | Cc1cc2ncn(CC(=O)c3ccc(O)c(O)c3)c2cc1C [Compound 18] |
| > 100 µM | no PLAP inhibitory potency | – | Cc1cc(C)nc(SCC(=O)c2ccc(O)cc2)n1 [Compound 3] |
| > 100 µM | – | – | Cc1cc(C(=O)NCc2ccc(O)c(O)c2)oc1C [Compound 25] |
| > 100 µM | – | – | O=C(CSc1nnc(-c2ccccc2)[nH]1)c1ccc(O)c(O)c1 [Compound 28] |
| ~3 µM | – | – | O=C(Cn1ccnc1)c1ccc(O)c(O)c1 [Compound 8] |
| > 100 µM | no PLAP inhibitory potency | – | COc1ccc(C(=O)CSc2nc(C)cc(C)n2)cc1 [Compound 7] |
| ~3 µM | – | Selectivity (GCAP/PLAP) (GCAP): ^* (2.1) | CCc1nccn1CC(=O)c1ccc(O)c(O)c1 [Compound 13] |
| > 100 µM | no PLAP inhibitory potency | – | Cc1cc(C)nc(SCC(=O)c2ccc3c(c2)OCO3)n1 [Compound 6] |
| > 100 µM | no PLAP inhibitory potency | – | Cc1cc(C)nc(SCC(=O)c2cccc(O)c2)n1 [Compound 4] |
| 3.3 ± 0.2 µM | – | – | Cc1nccn1CC(=O)c1ccc(O)c(O)c1 [Compound 12] |
| 2.7 ± 0.1 µM | – | Selectivity (IAP/PLAP) (IAP): > 25 fold | Cc1cnn(CC(=O)c2ccc(O)c(O)c2)c1 [Compound 10] |
| 2 ± 0.1 µM | – | – | COc1ccc(-n2nnnc2SCC(=O)c2ccc(O)c(O)c2)cc1 [Compound 32] |
| 4.9 ± 0.6 µM | – | increase in PLAP inhibitory potency (PLAP; 19 relative to 16): 3 fold | Cc1nc(Br)cn1CC(=O)c1ccc(O)c(O)c1 [Compound 19] |
| > 100 µM | – | – | Cn1c(SCC(=O)c2ccccc2)nnc1-c1cccc(N)c1 [Compound 29] |
| > 100 µM | – | – | Cc1cc(C(=O)NCCc2ccc(O)c(O)c2)oc1C [Compound 26] |

Source: article PMC2818863 (Bioorganic & medicinal chemistry, 2009)
